According to PubChem BioAssay AID1159560 (GlaxoSmithKline (GSK), 2015):
The source made the active and inactive calls. No rule for the calls is given here.

The compounds below were run on Leishmania donovani growth inhibition (assay: antileishmanial activity against L. donovani parasites (AID 1159560);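 also: parasites exposed to compound for 72 h before the viability read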).

With `O=C1CN(C(=O)c2cccc(Nc3ncc(-c4ccc5c(c4)OCO5)cn3)c2)CCN1` as the compound, how does the IC50 read?
Its IC50 is 1.6 µM.

With `COc1ccc(CNc2cc(C3CC3)nc(-c3nccn3C)n2)cc1` as the compound, how does the IC50 read?
Its IC50 is 2 µM.

Which IC50 does the source give for `CN(C)CCOc1ccc(N2CCN(S(=O)(=O)c3ccc(Cl)cc3)CC2)cc1` here?
Its IC50 is 40 µM.

With `O=S(=O)(c1ccccc1C(F)(F)F)N1CCN(Cc2ccc(-n3ccnc3)cc2)CC1` as the compound, how does the IC50 read?
Its IC50 is 6.3 µM.

How did the IC50 turn out when `CN(C)S(=O)(=O)c1ccc(Cl)c(C(=O)Nc2nc(-c3ccccn3)cs2)c1` was run?
The IC50 was 2 µM.

`CC(C)(C)c1csc(NC(=O)c2ccc([N+](=O)[O-])s2)n1` was tested. Which IC50 did it give?
The IC50 was 1.6 µM.

With `COc1cccc(CCNC(=O)C(c2cn[nH]c2)N2CCN(c3ccc(Cl)cc3)CC2)c1` (centres undefined) as the compound, how does the IC50 read?
Its IC50 is 13 µM.

How did the IC50 turn out when `COc1ccc([N+](=O)[O-])cc1NC(=O)Nc1cccc(Cl)c1` was run?
Its IC50 is > 50 µM (inactive).

`Cn1c(CC(=O)NNC(=O)c2ccc3ccccc3n2)nc2ccccc21` was tested. Which IC50 did it give?
Its IC50 is 6.3 µM.

`C[C@@H](Oc1cc(-n2cnc3cc(N)ccc32)sc1C(N)=O)c1ccccc1Cl` was tested. Which IC50 did it give?
Its IC50 is 3.2 µM.

How did the IC50 turn out when `O=C(CN(Cc1ccccn1)Cc1ccccn1)NCc1ccc2c(c1)OCO2` was run?
The IC50 was 13 µM.

Which IC50 does the source give for `O=C(NCCc1ccccc1Cl)c1cccn1-c1cccnc1` here?
Its IC50 is 6.3 µM.

For `Cc1cc(-c2cccc3ccccc23)nc2nc(N)nc(N)c12`, which IC50 is on record?
Its IC50 is 2 µM.

`CCOC(=O)c1cn[nH]c1S(=O)(=O)N1CCC1c1ccccc1` (centres undefined) was tested. Which IC50 did it give?
Its IC50 is > 50 µM (inactive).

How did the IC50 turn out when `Cc1cc(C)n(-c2nc(NC(C)C)nc(NC(C)(C)C)n2)n1` was run?
The IC50 was 3.2 µM.

How did the IC50 turn out when `O=C(Nc1ccc(C(F)(F)F)cc1)NC1(C(=O)NCc2ccco2)CCCCC1` was run?
Its IC50 is 40 µM.

How did the IC50 turn out when `O=C(Nc1cccc(F)c1)N1CCC(Oc2cccc(-c3cccnc3)c2)CC1` was run?
Its IC50 is 0.5 µM.

For `CCc1c(C)nc(-n2nc(C)cc2NC(=O)COc2ccccc2F)[nH]c1=O`, which IC50 is on record?
The IC50 was 0.13 µM.

How did the IC50 turn out when `O=C(NCc1nnc2n1CCCCC2)c1csc(-c2ccccc2)n1` was run?
Its IC50 is > 50 µM (inactive).

Which IC50 does the source give for `O=C(Nc1ncc([N+](=O)[O-])s1)C1CC1` here?
Its IC50 is 40 µM.

For `CCN(CC)S(=O)(=O)c1ccc(OC)c(NC(=O)c2ccc([N+](=O)[O-])s2)c1`, which IC50 is on record?
Its IC50 is > 50 µM (inactive).

Which IC50 does the source give for `CC(C)(C)C(=O)Nc1cc(C2CC2)nn1-c1nc2c(c(=O)[nH]1)CCCC2` here?
The IC50 was 0.079 µM.

`O=C(NCc1ccc(-n2cccc2)cc1)c1nc(Cn2ccc([N+](=O)[O-])n2)no1` was tested. Which IC50 did it give?
Its IC50 is > 50 µM (inactive).

Which IC50 does the source give for `CN(C(=O)Nc1ccc2c(c1)CCN(C1CCC1)CC2)c1ccc(C#N)cc1` here?
Its IC50 is 40 µM.

How did the IC50 turn out when `Cc1nc2c(-c3n[nH]c(-c4ccccc4N)n3)cccn2c1C` was run?
The IC50 was 6.3 µM.

For `O=C(NCCc1csc(-c2ccc(F)cc2)n1)c1cccs1`, which IC50 is on record?
Its IC50 is > 50 µM (inactive).

How did the IC50 turn out when `COc1ncc(-c2ccc3nccc(-c4ccncc4)c3c2)cc1NS(C)(=O)=O` was run?
Its IC50 is 3.2 µM.

Which IC50 does the source give for `CC(C)C[C@H](NC(=O)c1csc(-c2cccs2)n1)C(=O)NC1(C#N)CC1` here?
Its IC50 is 5 µM.

With `CCCCCNC(=O)c1c[nH]c2ccc(S(=O)(=O)N(C)c3ccc(OCC)cc3)cc2c1=O` as the compound, how does the IC50 read?
Its IC50 is > 50 µM (inactive).

Which IC50 does the source give for `Cc1cc2cc(CNc3ccc4c(c3)OCO4)c(=O)n(CCO)c2cc1C` here?
The IC50 was 6.3 µM.

How did the IC50 turn out when `O=C(NCc1nnc2n1CCCCC2)c1ccc(-c2ccc(F)cc2)o1` was run?
Its IC50 is > 50 µM (inactive).

Which IC50 does the source give for `CNc1nc(C)nc(N2CCc3cc(C(=O)NCc4ccc(-c5nccn5C)cc4Cl)ccc32)n1` here?
The IC50 was 5 µM.

For `CCn1nccc1CN(C)C(=O)C=Cc1ccc(Cl)cc1`, which IC50 is on record?
Its IC50 is 16 µM.

Which IC50 does the source give for `Nc1nc(-c2ccccc2)cc(-c2nc3ncccc3[nH]2)n1` here?
Its IC50 is 4 µM.

How did the IC50 turn out when `COc1ccc(C(=O)Nc2c(C)nn(COc3cccc(C(F)(F)F)c3)c2C)cc1` was run?
Its IC50 is > 50 µM (inactive).

For `NC(=O)c1cc(F)ccc1Nc1nc(NC2CCC(O)CC2)ncc1Br` (centres undefined), which IC50 is on record?
Its IC50 is 1.6 µM.

For `CCOc1ccc(NC(=O)C=Cc2ccc(CC)o2)cc1`, which IC50 is on record?
Its IC50 is 20 µM.

For `CCNc1cc(-c2ccccn2)nc(Nc2ccccc2)n1`, which IC50 is on record?
The IC50 was 2.5 µM.

How did the IC50 turn out when `CC(=O)Nc1cccc(Nc2ncnc3nc[nH]c23)c1` was run?
The IC50 was > 50 µM (inactive).

How did the IC50 turn out when `CCN(CC)S(=O)(=O)c1ccc(C(=O)Nc2cc(C)nn2-c2nc(C)c(C)c(=O)[nH]2)cc1` was run?
The IC50 was 0.5 µM.

For `CN(C)CCN(C)Cc1ccc(Cl)cc1NS(=O)(=O)c1ccc(Cl)c(Cl)c1`, which IC50 is on record?
The IC50 was 5 µM.

With `COc1ccc(C(=O)Nc2ccc(NC(=O)CO)cc2)cc1` as the compound, how does the IC50 read?
Its IC50 is > 50 µM (inactive).

For `Fc1ccc(Nc2nc(-c3ccccn3)cs2)cc1`, which IC50 is on record?
Its IC50 is 20 µM.

For `O=C(CSc1nnc(-c2ccc3c(c2)OCO3)o1)N(Cc1ccco1)CC(F)(F)F`, which IC50 is on record?
The IC50 was 16 µM.

With `CN(Cc1cccnc1)Cc1ccc(N2CCN(C(=O)C3(c4ccc(Cl)cc4)CC3)CC2)nc1` as the compound, how does the IC50 read?
The IC50 was 32 µM.

`COc1ccc(C(=O)NC2CCN(CCn3c(=O)ccc4ncc(F)cc43)CC2)cc1Cl` was tested. Which IC50 did it give?
The IC50 was 4 µM.

For `COc1ccc2nc(N(Cc3cccnc3)C(=O)C3CCC3)sc2c1`, which IC50 is on record?
Its IC50 is 13 µM.

For `COc1ccc(C(C)N(C)c2ncc3c(N)nc(N)nc3n2)cc1F` (centres undefined), which IC50 is on record?
The IC50 was 4 µM.

With `CC(CNS(=O)(=O)c1ccc(OC(F)F)cc1)c1ccc(NC(=O)c2ccncc2)cc1` (centres undefined) as the compound, how does the IC50 read?
Its IC50 is > 50 µM (inactive).

Which IC50 does the source give for `O=C(Nc1ccccc1C(=O)Nc1ccccn1)c1ccco1` here?
The IC50 was > 50 µM (inactive).

With `Nc1nc(-c2ccccn2)nc(-n2nc(-c3ccccc3)cc2N)n1` as the compound, how does the IC50 read?
The IC50 was 2 µM.

Which IC50 does the source give for `CCOc1cnn(C)c(=O)c1Nc1ccc(C(=O)NCc2ccc(F)cc2)cc1` here?
Its IC50 is 32 µM.

Which IC50 does the source give for `CN(C)Cc1cccc(Nc2nccc(-c3ccc(NCCN)c(C#N)c3)n2)c1` here?
The IC50 was 2.5 µM.

For `COc1ncc(-c2ccc3ncnc(N4CCOCC4)c3c2)cc1NS(C)(=O)=O`, which IC50 is on record?
The IC50 was 3.2 µM.
